Columns and labels:
Format in all cases: in vivo
Set-up in all cases: scale not given here
[1] = system: Echinochloa oryzicola Vasing; assay: Test Example 1: herbicidal effects in paddy field soil treatment; details: 1000 g active ingredient per hectare, 21st day after treatment
Procedure: (§1) 100-cm^2 plastic pots were filled with paddy field soil. After puddling and leveling, seeds of Echinochloa oryzicola Vasing, Monochoria vaginalis (Burm. f.) Presl var. plantaginea (Roxb.) Solms-Laub., and Scirpus juncoides Roxb. var. ohwianus. T. Koyama were sowed in the pots, and the soil was waterlogged to a water depth of 3 cm. On the next day, a wettable powder formulation prepared according to Formulation Example 1 was diluted with water, and the dilution was added dropwise onto the water surface. The amount of application was an amount equivalent to 1000 g of the active ingredient per hectare. Thereafter, the plants were grown in a greenhouse, and on the 21st day after the treatment, the herbicidal effects were investigated according to the criteria described in Table 71.
(§2) In addition, comparative compound A, comparative compound B, comparative compound C, and comparative compound D in the tables represent Compound Nos. 70, 34, 32, and 31, respectively, as described in EP-283261. The structural formulas of these compounds are presented below.

[2] = system: Monochoria vaginalis (Burm. f.) Presl var. plantaginea (Roxb.) Solms-Laub.; assay: as above; details: 1000 g active ingredient per hectare, 21st day after treatment
Procedure: as §1, §2

[3] = system: Scirpus juncoides Roxb. var. ohwianus. T. Koyama; assay: as above; details: 1000 g active ingredient per hectare, 21st day after treatment
Procedure: as §1, §2

[4] = system: Abutilon theophrasti medicus; assay: Test Example 2: herbicidal effects in farmland soil treatment; details: 1000 g active ingredient per hectare, 21st day after treatment
Procedure: (§3) 80-cm^2 plastic pots were filled with farmland soil. Seeds of Abutilon theophrasti medicus and Amaranthus retroflexus were sowed in the pots, and soil was covered. A wettable powder formulation prepared according to Formulation Example 1 was diluted with water, and the dilution was uniformly sprayed on the soil surface with a small sprayer, in an amount equivalent to 1000 liters per hectare, such that 1000 g of the active ingredient was applied per hectare. Thereafter, the plants were grown in a greenhouse, and on the 21st day after the treatment, the herbicidal effects were investigated according to the criteria described in Table 71 shown above.

[5] = system: Amaranthus retroflexus; assay: as above; details: 1000 g active ingredient per hectare, 21st day after treatment
Procedure: as §3

[6] = system: Abutilon theophrasti medicus; assay: Test Example 3: herbicidal effects in farmland foliar treatment; details: 1000 g active ingredient per hectare, 14th day after treatment
Procedure: (§4) 80-cm^2 plastic pots were filled with farmland soil. Seeds of Echinochloa crus-galli (L.) P. Beauv. var. crus-galli, Abutilon theophrasti medicus, and Amaranthus retroflexus were sowed in the pots, and the plants were grown for two weeks in a greenhouse. A wettable powder formulation prepared according to Formulation Example 1 was diluted with water, and the dilution was applied by foliar treatment by spraying with a small sprayer over the whole plant from the upper part, in an amount equivalent to 1000 liters per hectare, such that 1000 g of the active ingredient was applied per hectare. Thereafter, the plants were grown in a greenhouse, and on the 14th day after the treatment, the herbicidal effects were investigated according to the criteria described in Table 71 shown above.

[7] = system: Amaranthus retroflexus; assay: as above; details: 1000 g active ingredient per hectare, 14th day after treatment
Procedure: as §4

[8] = system: Echinochloa crus-galli (L.) P. Beauv. var. crus-galli; assay: as above; details: 1000 g active ingredient per hectare, 14th day after treatment
Procedure: as §4

[9] = system: Echinochloa crus-galli; assay: Test Example 2: herbicidal effects in farmland soil treatment; details: 1000 g active ingredient per hectare, 21st day after treatment
[10] = system: Setaria viridis; assay: as above; details: 1000 g active ingredient per hectare, 21st day after treatment
[11] = system: Setaria viridis; assay: Test Example 3: herbicidal effects in farmland foliar treatment; details: 1000 g active ingredient per hectare, 14th day after treatment

| SMILES | Herbicidal effect index, Echinochloa oryzicola [1] | Herbicidal effect index, Monochoria vaginalis [2] | Herbicidal effect index, Scirpus juncoides [3] | Herbicidal effect index, Abutilon thophrasti [4] | Herbicidal effect index, Amaranthus retroflexus [5] | Herbicidal effect index, Abutilon theoprasti [6] | Herbicidal effect index, Amaranthus retroflexus [7] | Herbicidal effect index, Echinochloa crus-galli [8] | Herbicidal effect index, Echinochloa crus-galli [9] | Herbicidal effect index, Setaria viridis [10] | Herbicidal effect index, Setaria viridis [11] |
| --- | --- | --- | --- | --- | --- | --- | --- | --- | --- | --- | --- |
| O=C1CCCC(O)=C1C(=O)c1cc2ccc(C(F)(F)Cl)nc2n(-c2ccccc2)c1=O [II-143] | 5 | 5 | 5 | 5 | 5 | 5 | 5 | 5 | 5 | 5 | 5 |
| COc1ccc(Cn2c(=O)c(C(=O)C3=C(O)CCCC3=O)cc3cccnc32)cc1 [II-39] | 5 | 5 | 5 |  |  | 5 | 5 | 5 |  |  | 3 |
| Cc1ccccc1-n1c(=O)c(C(=O)C2=C(O)CCCC2=O)cc2cccnc21 [II-48] | 5 | 5 | 5 | 4 | 5 | 5 | 5 | 5 | 5 | 5 | 5 |
| O=C1CCCC(O)=C1C(=O)c1cc2cccnc2n(-c2cccc(F)c2)c1=O [II-43] | 5 | 5 | 5 | 5 | 5 | 5 | 5 | 5 | 5 | 5 | 5 |
| COc1cccc(Cn2c(=O)c(C(=O)C3=C(O)CCCC3=O)cc3cccnc32)c1 [II-38] | 5 | 5 | 5 |  |  |  |  |  |  |  |  |
| Cc1ccc2cc(C(=O)C3=C(O)CCCC3=O)c(=O)n(C)c2n1 [II-121] | 5 | 5 | 5 |  |  | 5 | 5 | 4 |  |  | 3 |
| CCn1c(=O)c(C(=O)C2=C(O)CCCC2=O)cc2cccnc21 [II-3] | 5 | 5 | 5 |  |  | 5 | 5 | 5 |  |  | 4 |
| CCc1ccc2cc(C(=O)C3=C(O)CCCC3=O)c(=O)n(C)c2n1 [II-434] | 5 | 5 | 5 |  |  |  |  |  |  |  |  |
| O=C1CCCC(O)=C1C(=O)c1cc2cccnc2n(Cc2cccc(Cl)c2)c1=O [II-29] | 5 | 5 | 5 |  |  |  |  |  |  |  |  |
| Cc1ccc(C)c(-n2c(=O)c(C(=O)C3=C(O)CCCC3=O)cc3cccnc32)c1 [II-58] | 5 | 5 | 5 | 5 | 5 | 5 | 5 | 5 | 5 | 5 | 5 |
| O=C1CCCC(O)=C1C(=O)c1cc2cccnc2n(Cc2ccccc2Cl)c1=O [II-28] | 5 | 5 | 5 |  |  | 5 | 5 | 4 |  |  | 3 |
| Cn1c(=O)c(C(=O)C2=C(O)CCCC2=O)cc2ccc(C(F)F)nc21 [II-131] | 5 | 5 | 5 | 5 | 5 | 5 | 5 | 4 | 4 | 3 | 4 |
| CCCn1c(=O)c(C(=O)C2=C(O)CCCC2=O)cc2cccnc21 [II-4] | 5 | 5 | 5 | 5 | 5 | 5 | 5 | 5 | 5 | 4 | 4 |
| CCOCCn1c(=O)c(C(=O)C2=C(O)CCCC2=O)cc2cccnc21 [II-15] | 5 | 5 | 5 | 5 | 5 | 5 | 5 | 5 | 5 | 5 | 5 |
| CCn1c(=O)c(C(=O)C2=C(O)CCCC2=O)cc2c(Cl)cccc21 [I-157] | 5 | 4 | 3 |  |  |  |  |  |  |  |  |
| O=C1CCCC(O)=C1C(=O)c1cc2ccc(C(F)(F)F)nc2n(-c2ccccc2)c1=O [II-138] | 5 | 5 | 5 |  |  | 5 | 3 | 5 |  |  | 5 |
| O=C1CCCC(O)=C1C(=O)c1cc2ncccc2n(-c2ccccc2)c1=O [III-41] | 4 | 4 | 4 |  |  |  |  |  |  |  |  |
| O=C1CCCC(O)=C1C(=O)c1cc2cccnc2n(Cc2ccc(Cl)cc2)c1=O [II-30] | 4 | 5 | 5 |  |  |  |  |  |  |  |  |
| COc1ccc(-n2c(=O)c(C(=O)C3=C(O)CCCC3=O)cc3ccccc32)cc1 [I-56] | 5 | 5 | 5 |  |  | 5 | 5 | 3 |  |  | 3 |
| O=C1CCCC(O)=C1C(=O)c1cc2ccc(C(F)F)nc2n(-c2ccc3c(c2)OCCO3)c1=O [II-442] | 5 | 5 | 5 |  |  |  |  |  |  |  |  |
| CC(C)c1ccc2cc(C(=O)C3=C(O)CCCC3=O)c(=O)n(C)c2n1 [II-126] | 3 | 5 | 4 |  |  |  |  |  |  |  |  |
